Source: PMC3909264, “A Novel Acylaminoimidazole Derivative, WN1316, Alleviates Disease Progression via Suppression of Glial Inflammation in ALS Mouse Model” (PLoS ONE, 2014)
Structures can show the parent of a compound that is named as a salt.

Assays:
ALS(SOD1^H46R) mice = assay: Post-onset oral administration in ALS(SOD1^H46R) mice: motor function, body weight, survival; type: in vivo; conditions: for balance beam test: duration from onset to the day the mouse was unable to stay on the bar: n = 26, mean ± SEM (vehicle 20.7±0.7); for survival interval after onset: n = 26, mean ± SD (vehicle 36.6±6.2)
Description: Transgenic mice carrying the H46R mutation in the human SOD1 gene; SOD1^H46R were used as a familial ALS mouse model. […] Since the genetic background is one of the important factors modulating disease phenotypes in mutant SOD1 transgenic mice, we first generated a congenic line of ALS(SOD1^H46R) transgenic mice by backcrossing more than 15 generations to B6 mice.
(§1) The lines were maintained as hemizygotes by mating ALS(SOD1^H46R) and ALS(SOD1^G93A) males with B6 females. Offspring were genotyped by PCR using genomic DNA from tail tissue. Mice were housed at 23°C with a 12 h light/dark cycle, in which water and food was available ad libitum. The condition of each animal was monitored weekly initially and then daily after disease onset. The lifespan was determined by the days from disease onset to the endpoint, in which mouse lost active and/or spontaneous movement. All animal experimental procedures were approved by the Institutional Animal Care and Use Committee at Tokai University.
(§2) WN1316 was dissolved in MQ water, and diluted with physiological saline. ALS(SOD1^H46R) transgenic mice were given WN1316 via gastric tube (CAT.No.4202, Fuchigami) at a dose of either 1 µg, 10 µg or 100 µg/5 ml/kg body weight. ALS(SOD1^G93A) transgenic mice were given 10 µg/kg WN1316. Animals simultaneously treated with physiological saline (vehicle group, 5 ml/kg) were used as controls.
(§3) To determine the onset of motor dysfunction in ALS(SOD1^H46R) transgenic mice, we adopted a balance beam test as previously described in detail. To determine the onset of motor dysfunction in ALS(SOD1^G93A) transgenic mice, we adopted both balance beam and grip strength tests. Grip strength test was assessed using a traction meter (BrainScience Idea Co., Ltd.). Each mouse was given three trials, and the highest limb strength score was recorded. For ALS(SOD1^G93A) transgenic mice, grip strength tests were started at 11 weeks of age and performed twice a week until an over 20% reduction compared with the initial limb strength score at 11 weeks of age was observed. Finally, a grade 3 in the balance beam test and over 20% reduction of limb strength score were defined as the sign of the disease onset in ALS(SOD1^G93A) transgenic mice.
(§4) The gross phenotypes were measured blindly. The body weight of each mouse was measured weekly initially and then daily after disease onset. Mice were assessed for gross behavior every week from 12 weeks of age in ALS(SOD1^H46R) mice and from 11 weeks of age in ALS(SOD1^G93A) mice until the endpoint. In particular, hind limb movement and rearing behavior of each animal were monitored weekly from 12 weeks of age until the end stage. The days from the disease onset to the endpoint were counted individually as the survival interval.
We assessed motor performance and coordination, and balance in the mice by the balance-beam test, vertical pole test, and footprint analysis as previously described in detail and grip strength test as described above. In brief, the balance-beam test was performed every day after the onset until mice were unable to stay on the bar. Each mouse was given a maximum of five vertical pole trials using the following two criteria; 1) a cutoff of 45cm and 2) the task was terminated when mouse reached the vertical ascending distance of 45 cm. The highest vertical ascending distance was scored. The footprint trial was conducted at 18 and 21 weeks of age in ALS(SOD1^H46R) mice and at 12, 16, and 20 weeks of age in ALS(SOD1^G93A) mice. Grip strength test of ALS(SOD1^H46R) mice was started at 17 weeks of age and performed once a week.
To evaluate the spontaneous motor activities in mice, we conducted cage activity and rearing performance tests by using SUPERMEX with infrared ray sensor monitor (Muromachi Kikai). […]

[1] = Water solubility (stated property); type: physicochemical
ALS(SOD1^G93A) mice = assay: Post-onset oral administration in ALS(SOD1^G93A) mice: motor function, body weight, survival; type: in vivo
Protocol: In addition, congenic ALS(SOD1^G93A) transgenic mice on a B6 background were also generated by crossing B6SJL-TgN(SOD1-G93A)1Gur [ALS(SOD1^G93A)] males (Jackson Laboratory) to B6 females for more than 11 generations. Both congenic ALS mice were used throughout this study.
as §1, §2, §3, §4
We assessed motor performance and coordination, and balance in the mice by the balance-beam test, vertical pole test, and footprint analysis as previously described in detail and grip strength test as described above. In brief, the balance-beam test was performed every day after the onset until mice were unable to stay on the bar. […] The highest vertical ascending distance was scored. […]
To evaluate the spontaneous motor activities in mice, we conducted cage activity and rearing performance tests by using SUPERMEX with infrared ray sensor monitor (Muromachi Kikai). Both cage activity and rearing performance were monitored for 2 consecutive nights starting at 18 weeks and 21 weeks of age in ALS(SOD1^H46R) mice and at 13 weeks, 17 weeks and 21 weeks of age in ALS(SOD1^G93A) mice. […]

NAIP in THP-1 cells = assay: Western blot of NAIP in THP-1 cells; type: cell-based, human; conditions: 1 to 16 µM, 24 h
Protocol: Human monocytic leukemia cell line THP-1 (ATCC, TIB-202) was cultured in RPMI-1640 (Wako) supplemented with 10% fetal bovine serum, 100 U/ml penicillin, and 100 µg/ml streptomycin at 37°C in 5% CO2. Approximately 1×10^5 cells, which were pretreated with 1 to 16 µM WN1316 or DMSO in the presence or absence of 1 mM NAC for 24 h, were plated on a 96-well plate and exposed to 80 µM menadione for 16 h. Cell viability was measured by AlamarBlue assay. For Western blotting, cell lysates were prepared by using M-PER mammalian protein extraction reagent (Thermo scientific) according to standard procedure.

SMILES: Cc1cc(C)c(N(C)CC(=O)Nc2nc(-c3ccccn3)c[nH]2)c(C)c1 [WN1316, 2-[mesityl(methyl)amino]-N-[4-(pyridin-2-yl)-1H-imidazol-2-yl] acetamide trihydrochloride]
- balance beam test: duration from onset to the day the mouse was unable to stay on the bar (ALS(SOD1^H46R) mice; 1 µg/kg/day p.o. post-onset): 25.6 ± 0.9 days
- survival interval after onset (ALS(SOD1^H46R) mice; 1 µg/kg/day p.o.): 43.8 ± 5.5 days
- balance beam test: duration from onset to the day the mouse was unable to stay on the bar (ALS(SOD1^H46R) mice; 10 µg/kg/day p.o. post-onset): 26.3 ± 0.6 days
- survival interval after onset (ALS(SOD1^H46R) mice; 10 µg/kg/day p.o.): 43.9 ± 4.4 days
- balance beam test: duration from onset to the day the mouse was unable to stay on the bar (ALS(SOD1^H46R) mice; 100 µg/kg/day p.o. post-onset): 28.4 ± 0.8 days
- survival interval after onset (ALS(SOD1^H46R) mice; 100 µg/kg/day p.o.): 45.9 ± 6.0 days
- effect on mouse weight (ALS(SOD1^H46R) mice; 1, 10, 100 µg/kg/day, 12–24 weeks of age): did not affect mouse weight
- prolongation of post-onset survival (ALS(SOD1^H46R) mice; 1–100 µg/kg/day p.o., vs vehicle): 20–25%
- vertical pole climbing and grip strength (ALS(SOD1^H46R) mice; 1–100 µg/kg/day, 21–22 weeks of age (late symptomatic stage), vs vehicle): significant preservation of motor performance
- gait on footprint analysis (ALS(SOD1^H46R) mice; 21 weeks of age (late symptomatic stage)): short but still steady gait
- autopsy findings of organs such as heart and kidney (ALS(SOD1^H46R) mice; WN1316-treated mice, data not shown): no pathological abnormalities
- water solubility (in words) [1]: highly soluble in water
- impact including weight gain or loss (ALS(SOD1^G93A) mice; 10 µg/kg/day p.o.): No impact
- post-onset life span (survival interval) (ALS(SOD1^G93A) mice; 10 µg/kg/day p.o., n = 8, mean ± SD (vehicle 57.9±6.0)): 66.1 ± 12.0 days
- balance beam test: duration from onset to the day the mouse was unable to stay on the bar (ALS(SOD1^G93A) mice; 10 µg/kg/day p.o., n = 8, mean ± SEM (vehicle 39.3±2.1)): 47.1 ± 3.0 days
- prolongation of post-onset survival (ALS(SOD1^G93A) mice; 10 µg/kg/day p.o., vs vehicle): 14%
- motor performance by footprint analysis (ALS(SOD1^G93A) mice; 10 µg/kg/day, 20 weeks of age (late symptomatic stage), vs vehicle): sustained motor performance
- NAIP protein level (NAIP in THP-1 cells): dose-dependent upregulation
